From PMC9967584 (2023)

Test system: Cocaine-targeting aptamer (DNA, aptamer) AGACAAGGAAAATCCTTCAATGAAGTGGGTCG
Test: square wave voltammetry, aptamer on gold microelectrode
Details: PBS; MCH-passivated; non-coated and PSB-coated sensors same calibration, modified Langmuir fit, constant not given

- binding: yes
Compound: COC(=O)[C@H]1[C@@H](OC(=O)c2ccccc2)C[C@@H]2CC[C@H]1N2C
